How the values were obtained:
Alternaria solani = test: Tomato Early Blight control; assay type: in vivo; conditions: 250-ppm spray, tomato seedlings, inoculated 1 day later
Method: Compounds of the invention were tested for the control of the Tomato Early Blight organism, Alternaria solani conidia. […] The tomato plans were sprayed with a 250-ppm solution of the test compound in an acetone-and-water solution containing a small amount of a non-ionic emulsifier. […] Percent disease control was based on the percent disease development on untreated check plants.

[1] = system: Lambsquarter (Chenopodium album); test: Post-emergent herbicidal test; assay type: in vivo; conditions: post-emergence, 504 h, 33 mcg/cm^2, 3 weeks, scale 0 (no phytotoxicity) to 100 (complete kill), read-out: Herbicidal Effectiveness (P)
Method: (§1) Post-emergent herbicidal tests with representative compounds of this invention were made using the following method.
(§2) An acetone solution of the test compound was prepared by mixing 750 mg of the compound, 220 mg of a nonionic surfactant and 25 ml of acetone. This solution was added to approximately 125 ml of water containing 156 mg of surfactant.
(§3) This test solution was uniformly sprayed on 2 similar pots of 24-day-old plants (approximately 15 to 25 plants per pot) at a dose of 33 mcg/cm^2. After the plants had dried, they were placed in a greenhouse and then watered intermittently at their bases, as needed. The plants were observed periodically for phytotoxic effects and physiological and morphological responses to the treatment. After 3 weeks, the herbicidal effectiveness of the compound was rated based on these observations. A 0-to-100 scale was used, 0 representing no phytotoxicity and 100 representing complete kill.

[2] = system: Pigweed (Amaranthus retroflexus); test: Post-emergent herbicidal test; assay type: in vivo; conditions: post-emergence, 504 h, 33 mcg/cm^2, 3 weeks, scale 0 (no phytotoxicity) to 100 (complete kill), read-out: Herbicidal Effectiveness
Method: as §1, §2, §3

[3] = system: Watergrass (Echinochloa Crusgalli); test: Post-emergent herbicidal test; assay type: in vivo; conditions: Echinochloa crus-galli, post-emergence, 504 h, 33 mcg/cm^2, 3 weeks, scale 0 (no phytotoxicity) to 100 (complete kill), read-out: Herbicidal Effectiveness (W)
Method: as §1, §2, §3

[4] = system: Mustard (Brassica arvensis); test: Post-emergent herbicidal test; assay type: in vivo; conditions: post-emergence, 504 h, 33 mcg/cm^2, 3 weeks, scale 0 (no phytotoxicity) to 100 (complete kill), read-out: Herbicidal Effectiveness (L)
Method: as §1, §2, §3

[5] = system: Crabgrass (Digitaria sanguinalis); test: Post-emergent herbicidal test; assay type: in vivo; conditions: post-emergence, 504 h, 33 mcg/cm^2, 3 weeks, scale 0 (no phytotoxicity) to 100 (complete kill), read-out: Herbicidal Effectiveness (C)
Method: as §1, §2, §3

Wild Oats (Avena fatua) = test: Post-emergent herbicidal test; assay type: in vivo; conditions: post-emergence, 504 h, 33 mcg/cm^2, 3 weeks, scale 0 (no phytotoxicity) to 100 (complete kill), read-out: Herbicidal Effectiveness (O)
Method: as §1, §2, §3

[6] = system: mite eggs (Tetramuchus urticae); test: Mite control test, mite eggs; assay type: in vivo; conditions: 40-ppm leaf dip, egg mortality (non-hatching eggs) 7 days after treatment
Method: (§4) Compounds of the invention were tested for the control mites and mite eggs by the following procedure. Pinto bean leaves were invested with two spotted-mites (Tetramuchus urticae). The mites were then allowed to lay eggs on the leaves. After 48 hours, the leaves were dipped into a water/acetone solution containing a small amount of a non-ionic surfactant and 40-ppm of the test compound. The treated leaves were then maintained at 85° F. One day after treatment, the mortality of adult mites was determined, and 7 days after treatment, the egg mortality (non-hatching eggs) was determined.

[7] = system: two spotted-mites (Tetramuchus urticae); test: Mite control test, adult mites; assay type: in vivo; conditions: 40-ppm leaf dip, adult mortality one day after treatment; 1440 min
Method: as §4

Phytophthora infestans = test: whole plant or invertebrate; assay type: in vivo; conditions: in Solanum lycopersicum, 168 h, read-out: Tomato Late Blight, % Control
Fusarium moniloforma = test: Mycelia Inhibition; assay type: cell-based; conditions: 25° C., 24 hours
Method: (§5) The compounds of the present invention were evaluated for fungicidal effectiveness by means of a mycelial inhibition test. This test is designed to measure the fungitoxic acitvity of fungicidal chemicals in terms of their degree of inhibition of mycelium growth. Each compound to be tested was dissolved in acetone to 500 ppm concentration. Paper strips were innoculated with the particular mycelium growth by covering the paper with a potato dextrose broth culture of mycelial suspension. The innoculated papers were then placed on potato dextrose agar plates and sprayed by means of a micro sprayer with the fungicidal solution. The treated paper strips were incubated at 25° C. and data is taken after 24 hours. Fungicidal activities are measured by a zone of inhibited mycelial growth from the center of the paper strip. The effectiveness of the compounds tested for fungicidal activity is reported in Table VI in terms of the microgram/cm^2 for 99% control of the fungus.

Botrytis cinerea [8] = test: Mycelia Inhibition; assay type: cell-based; conditions: 25° C., 24 hours
Method: as §5

Rhizoctonia solani = test: Mycelia Inhibition; assay type: cell-based; conditions: 25° C., 24 hours
Method: as §5

Aspergillus niger = test: Mycelia Inhibition; assay type: cell-based; conditions: 25° C., 24 hours
Method: as §5

Septoria apii = assay type: in vivo; conditions: sprayed celery plants; concentration not given
Erysiphe polygoni = test: Powdery Mildew control on bean seedlings; assay type: in vivo; conditions: 250-ppm spray, about 10 days
Excerpt: The powdery mildew test was made using bean seedlings (var. Bountiful) with well-developed primary leaves. The pathogen was Erysiphe polygoni. The bean seedlings were sprayed with a 250-ppm solution of the test compound in an acetone-water mixture containing a nonionic emulsifer. The treated plants were inoculated one day after spray application of the test compound with the pathogen. […] The rate of infection on the leaves was made after about 10 days. The percent disease control provided by a given test compound was based on the disease reduction relative to untreated check plants.

Botrytis cinerea [9] = test: Botrytis cinerea control on detached horsebean leaves; assay type: in vivo; conditions: 40-ppm solution, dipped horsebean leaves, 3 to 5 days, 23.5° C
Method: The leaves were dipped into a 40-ppm solution of the test compound in acetone and water containing a small amount of a nonionic emulsifier, then taken out and placed in a petri plate lined with two pieces of filter paper. The leaves were allowed to dry while the filter paper was kept moist by adding water as required. The treated leaves were then inoculated with the spores of Botrytis cinerea fungus grown on potato dextrose agar. The plate was covered after inoculation and kept at 23.5° C. The filter-paper lining of the plate was kept saturated with water throughout the test. The rate of disease incidence was determined in 3 to 5 days, when the disease symptoms were fully evident on non-treated check leaves. The percentage disease control provided by the test compound was calculated as the percentage disease reduction based on the non-treated check leaves.

| Structure (SMILES) | Tomato Early Blight, % Control (Alternaria solani) [%] | pest or weed control at 33 µg/cm2 [1] [%] | pest or weed control at 33 µg/cm2 [2] [%] | pest or weed control at 33 µg/cm2 [3] [%] | pest or weed control at 33 µg/cm2 [4] [%] | pest or weed control at 33 µg/cm2 [5] [%] | pest or weed control at 33 µg/cm2 (Wild Oats (Avena fatua)) [%] | Mite Eggs Control, % [6] [%] | Mite Control, % [7] [%] | pest or weed control at 250 µg/mL (Phytophthora infestans) [%] | Mycelia Inhibition, for 99% control (F) (Fusarium moniloforma) [micrograms/cm^2] | Mycelia Inhibition, for 99% control (B) (Botrytis cinerea [8]) [micrograms/cm^2] | Mycelia Inhibition, for 99% control (R) (Rhizoctonia solani) [micrograms/cm^2] | Mycelia Inhibition, for 99% control (A) (Aspergillus niger) [micrograms/cm^2] | Celery Late Blight, % Control (Septoria apii) [%] | Powdery Mildew % Control (Erysiphe polygoni) [%] | percentage disease control (Botrytis cinerea) (Botrytis cinerea [9]) [%] |
| --- | --- | --- | --- | --- | --- | --- | --- | --- | --- | --- | --- | --- | --- | --- | --- | --- | --- |
| Clc1ccc(N=c2ssnc2Cl)c(Cl)c1 [Compound 6] | 56 | 95 | 100 | 55 | 100 | 35 | 30 | 0 | 100 |  |  |  |  |  |  |  |  |
| Cc1ccc(N=c2ssnc2Cl)c(C)c1 [Compound 13] | 44 | 35 | 35 | 0 | 50 | 0 | 0 | 30 | 0 | 63 | > 1.7 | > 1.7 | > 1.7 | 1.1 |  |  |  |
| O=[N+]([O-])c1ccc(Oc2cccc(N=c3ssnc3Cl)c2)cc1 [Compound 18] | 44 |  |  |  |  |  |  |  |  |  | > 1.7 | > 1.7 | 0.45 | > 1.7 | 64 |  |  |
| Fc1ccccc1N=c1ssnc1Cl [Compound 22] | 50 | 70 | 70 | 20 | 85 | 0 | 0 | 39 | 0 |  | 1.3 |  | 0.73 | 1.4 | 80 |  |  |
| Cc1ccc(Cl)cc1N=c1ssnc1Cl [Compound 28] |  | 95 | 100 | 65 | 100 | 20 | 45 | 85 | 85 |  |  |  |  |  |  | 90 |  |
| Clc1cc(Cl)cc(N=c2ssnc2Cl)c1 [Compound 3] |  | 100 | 100 | 85 | 100 | 55 | 35 | 85 | 90 |  | > 1.7 |  | 0.98 | > 1.7 |  | 76 |  |
| N#Cc1ccc(N=c2ssnc2Cl)cc1 [Compound 23] | 90 |  |  |  |  |  |  |  |  | 97 | 1.4 | 0.78 | 0.6 | > 1.7 | 63 |  |  |
| Cc1c(Cl)cccc1N=c1ssnc1Cl [Compound 21] | 44 | 20 | 50 | 15 | 45 | 0 | 0 | 99 | 90 | 63 | > 1.7 | 1.3 | 1.1 | > 1.7 |  | 100 |  |
| Cc1cc(Cl)ccc1N=c1ssnc1Cl [Compound 4, 4-chloro-5-(2-methyl-4-chlorophenylimino)-1,2,3-dithiazole] |  | 85 | 70 | 30 | 70 | 20 | 20 | 100 | 94 |  | > 1.7 |  | 0.63 | > 1.7 |  | 100 | 92 |
